# Assay results: patent US11279703B2, “Fused pyrimidine compounds as BRD4 and JAK2 dual inhibitors and methods for use thereof” (APTOSE BIOSCIENCES INC., priority 2016, dated 2022)
# Columns and labels:
# BRD4-BD1 = BRD4-BD1 (Homo sapiens (Human), UniProt O60885); experiment: AlphaLisa bromodomain binding assay, BRD4-BD1; details: Table 6; read-out: BRD4(1) IC50
# JAK2 = JAK2 (Homo sapiens (Human), UniProt O60674); experiment: HTRF kinase assay, JAK2; type: biochemical; details: Table 6
# Text: A kinase assay with HTRF was used to observe JAK activity and calculate the IC50s of compounds disclosed herein. HTRF is an enzymatic assay used to determine the amount of phosphorylated peptide. FRET (Fluorescence Resonance Energy Transfer) is based on the transfer of energy between two fluorophores—a donor and an acceptor—when in close proximity. Molecular interactions between biomolecules can be assessed by coupling each partner with a fluorescent label and by detecting the level of energy transfer. The amount of phopshorylated peptide can be detected using a combination of a Eu 3+Cryptate labeled anti-phospho residue antibody, SA-XL665 and a biotinylated substrate. The signal is proportional to the concentration of phospho-residues.
# Equipment Required • 1. […] Plate centrifuge • 3. Plate shaker • 4. […] Single channel and multi-channel pipettes • 6. Microplate reader (Pherastar)]
# Stock and Final Assay Concentrations (FAC) • 1. All reference and test compounds are made at a concentration of 10 mM in DMSO. Compounds are serially diluted in DMSO and a FAC starting from 10 μM to 10 point 3 fold serial dilutions is arrived. For Ruxolitinib the starting FAC is 1 μM. FAC of DMSO is 1%. • 2. Enzyme stock and FAC
# • JAK-1: Invtirogen Cat: PR8767C • JAK-2: Invtirogen Cat: PR7820B • JAK-3: Invtirogen Cat: PR7507B • 3. Substrate (synthetic peptide-Biotinylated-N-terminal tag-[…] from Biopeptide) stock and FAC
# • Adenosine 5′-triphosphate disodium salt hydrate: Sigma Cat: A26209 • 5. […] Buffers • Base buffer (for 50 ml)
# • HTRF buffer: • 50 mM Tris-HCl, pH—7.5 • 100 mM NaCl • 0.1% BSA • 0.05% Tween20 • 0.5 mM EDTA
# To a 384 well black-plate: • 1. Add 17 μL of the buffer to each well of the 384-well black plate • 2. […] Add 5 μl of the enzyme to each well of the plate • 4. Add 10 μl of the substrate and ATP mix to all the wells • 5. Cover with plate sealer • 6. […] Incubate at room temperature for 1 hour on shaker • 8. […] Add 37.5 μL of the HTRF mix to these wells. • 9. Incubate the plate at room temperature on shaker for 45 minutes. • 10.
# The percent inhibition is calculated in the excel analysis template and the IC50 values are subsequently determined using a sigmoidal dose-response curve (variable slope) using GraphPad Prism® 5 software.
# JAK2, sequence (O60674 whole entry): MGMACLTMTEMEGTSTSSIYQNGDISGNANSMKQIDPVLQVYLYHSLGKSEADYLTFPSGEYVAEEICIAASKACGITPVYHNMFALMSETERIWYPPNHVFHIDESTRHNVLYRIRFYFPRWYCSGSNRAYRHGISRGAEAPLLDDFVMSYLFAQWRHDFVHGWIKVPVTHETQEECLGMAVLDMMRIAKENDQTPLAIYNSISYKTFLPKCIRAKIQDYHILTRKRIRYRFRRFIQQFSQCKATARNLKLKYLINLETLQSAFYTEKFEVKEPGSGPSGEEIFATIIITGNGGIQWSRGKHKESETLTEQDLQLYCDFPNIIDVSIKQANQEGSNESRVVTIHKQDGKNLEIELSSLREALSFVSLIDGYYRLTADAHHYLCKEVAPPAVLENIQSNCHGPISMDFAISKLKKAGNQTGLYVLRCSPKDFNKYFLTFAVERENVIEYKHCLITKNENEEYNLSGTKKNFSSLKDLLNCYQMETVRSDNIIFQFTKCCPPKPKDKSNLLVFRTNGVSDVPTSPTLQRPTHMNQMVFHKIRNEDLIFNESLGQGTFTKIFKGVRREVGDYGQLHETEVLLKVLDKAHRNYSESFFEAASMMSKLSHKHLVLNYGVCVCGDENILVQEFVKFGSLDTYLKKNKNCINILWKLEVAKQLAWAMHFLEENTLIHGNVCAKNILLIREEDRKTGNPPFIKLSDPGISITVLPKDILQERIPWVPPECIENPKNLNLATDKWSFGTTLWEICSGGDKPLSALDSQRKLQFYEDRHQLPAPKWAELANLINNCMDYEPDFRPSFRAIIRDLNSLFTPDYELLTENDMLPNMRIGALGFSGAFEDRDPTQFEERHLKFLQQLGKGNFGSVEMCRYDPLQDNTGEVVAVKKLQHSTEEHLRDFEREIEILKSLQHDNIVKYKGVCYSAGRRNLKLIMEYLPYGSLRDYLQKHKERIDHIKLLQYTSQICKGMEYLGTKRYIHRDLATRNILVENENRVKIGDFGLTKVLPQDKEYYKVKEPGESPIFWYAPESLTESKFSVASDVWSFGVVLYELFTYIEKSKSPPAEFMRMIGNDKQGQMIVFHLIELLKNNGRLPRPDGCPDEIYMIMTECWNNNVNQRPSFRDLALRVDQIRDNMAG
Structure (SMILES),IC50 (BRD4-BD1) [µM],IC50 (JAK2) [µM]
CNCCNC(=O)Cc1ccc(Nc2ncc3ccn(-c4ccc(F)c(NS(=O)(=O)C(C)(C)C)c4)c3n2)cc1F,0.142,0.251
CC(C)(C)S(=O)(=O)Nc1cccc(Nc2nc(NC3CCNCC3)nc3sccc23)c1 [drawing 406],1.2,10
Cc1cnc(Nc2ccc(N3CCN(C)CC3)cc2)nc1Nc1cccc(NS(=O)(=O)C(C)(C)C)c1 [drawing 281],0.228,0.01
Cc1cnc(Nc2ccc(N3CCN(C)CC3)cc2)nc1Nc1cccc(NS(=O)(=O)C(C)(C)C)c1 [drawing 292],0.28,0.009
CN(C)C1CCN(Cc2ccc(Nc3ncc4ccn(-c5cccc(NS(=O)(=O)C(C)(C)C)c5)c4n3)cc2F)CC1,0.145,0.051
CC(C)(C)S(=O)(=O)Nc1cccc(-n2ccc3cnc(Nc4ccc5c(c4)CC4CNCCN54)nc32)c1 (centres unmarked) [drawing 411],0.306,0.013
CC(C)(C)S(=O)(=O)N1CCc2ccc(-n3ccc4cnc(Nc5ccc(N6CCNCC6)cc5)nc43)cc21,1.94,0.04
CN1CCN(c2ccc(Nc3ccc4ccn(-c5cccc(NS(=O)(=O)C(C)(C)C)c5)c4n3)cc2)CC1,10,10
CN1CCN(c2ccc(Nc3ncc4scc(-c5ccc(F)c(NS(=O)(=O)C(C)(C)C)c5)c4n3)cc2F)CC1,0.228,0.036
CNC(=O)C1CCN(c2ccc(Nc3ncc4ccn(-c5ccc(F)c(NS(=O)(=O)C(C)(C)C)c5)c4n3)cc2F)CC1,0.735,0.123
CN1CCN(C(=O)c2ccc(Nc3ncc4ccn(-c5cccc(NS(=O)(=O)C(C)(C)C)c5)c4n3)cc2)CC1,0.771,0.028
Cc1ccc(-n2ccc3cnc(Nc4ccc(N5CCNCC5)cc4)nc32)cc1NS(=O)(=O)C1CC1,2.2,0.031
CN1CCC(NC(=O)c2ccc(Nc3ncc4ccn(-c5ccc(F)c(NS(=O)(=O)C6CC6)c5)c4n3)cc2)CC1,1.13,0.152
CN1CCN(c2ccc(Nc3ncc4ccn(-c5ccc(C#N)c(NS(=O)(=O)C6CC6)c5)c4n3)cc2)CC1,1.8,0.078
COc1nc(Nc2ccc(N3CCN(C)CC3)cc2)nc2c1ccn2-c1cccc(NS(=O)(=O)C(C)(C)C)c1,5.16,10
CN1C(=O)CCc2cc(Nc3ncc4ccn(-c5cccc(NS(=O)(=O)C(C)(C)C)c5)c4n3)ccc21,3.2,0.035
CN1CCN(c2ccc(Nc3ncc4ccn(-c5ccc6c(c5)N(S(=O)(=O)C(C)(C)C)CC6)c4n3)cc2)CC1,1.41,0.032
CN1CCN(c2ccc(Nc3ncc4ccn(-c5cccc6c5CCN6S(=O)(=O)C(C)(C)C)c4n3)cc2)CC1,10,0.008
CN1CCN(c2ccc(Nc3ncc4ccn(-c5ccc6c(c5)N(S(=O)(=O)C(C)(C)C)CC6)c4n3)cc2F)CC1,1.3,0.038
CCC1(S(=O)(=O)Nc2cccc(-n3ccc4cnc(Nc5ccc(N6CCC(N(C)C)CC6)cc5)nc43)c2)CC1,1.4,0.0047
COc1cc(Nc2ncc3ccn(-c4cccc(NS(=O)(=O)C5CC5)c4)c3n2)ccc1N1CCN(C)CC1,1.81,0.015
CN(c1cccc(Nc2nc(NC3CCNCC3)nc3sccc23)c1)S(=O)(=O)C(C)(C)C,0.87,10
CC(C)(C)S(=O)(=O)Nc1cc(-c2csc3cnc(Nc4ccc(N5CCNCC5)c(F)c4)nc23)ccc1F,0.162,0.051
CN(C)C1CCN(c2ccc(Nc3ncc4ccn(-c5ccc(F)c(NS(=O)(=O)C(C)(C)C)c5)c4n3)cc2F)CC1 [drawing 408],0.063,0.043
CN1CCN(c2cccc(Nc3ncc4ccn(-c5cccc(NS(=O)(=O)C(C)(C)C)c5)c4n3)c2)CC1,1.7,0.074
CC(C)(C)S(=O)(=O)Nc1cccc(-n2ccc3cnc(Nc4ccc(N5CCOCC5)cc4)nc32)c1,5.53,0.0244
CC(C)(C)S(=O)(=O)Nc1cccc(-n2ccc3cnc(NC4CCNCC4)nc32)c1,10,10
CN(C)C1CCN(c2ccc(Nc3ncc4ccn(-c5ccc(F)c(NS(=O)(=O)C(C)(C)C)c5)c4n3)cc2)CC1,0.258,0.082

Structure (SMILES),IC50 (BRD4-BD1) [µM],IC50 (JAK2) [µM]
CNC1CCN(C(=O)c2ccc(Nc3ncc4scc(-c5cccc(NS(=O)(=O)C(C)(C)C)c5)c4n3)cc2F)CC1,0.298,0.012
CC1(C)CNCCC1Nc1cc(Nc2cccc(NS(=O)(=O)C(C)(C)C)c2)c2ccsc2c1 (centres unmarked),2.83,10
CC(C)(C)S(=O)(=O)Nc1cccc(Nc2nc(NC3CCNCC3)nc3sccc23)c1 [drawing 267],0.59,10
CN(C)C1CCN(Cc2ccc(Nc3ncc4ccn(-c5ccc(F)c(NS(=O)(=O)C(C)(C)C)c5)c4n3)cc2F)CC1,0.105,0.265
CC(C)(C)S(=O)(=O)Nc1cccc(Nc2nc(NC3CCNCC3)nc3[nH]ccc23)c1,10,10
CC(C)(C)S(=O)(=O)Nc1cc(Nc2nc(NC3CCNCC3)nc3ccsc23)ccc1Cl,3.27,10
CC(C)(C)S(=O)(=O)Nc1cccc(Nc2nc(NC3CCN(c4ccccc4)CC3)nc3sccc23)c1,10,10
CN1CCN(c2ccc(Nc3ncc4ccn(-c5cccc(NS(=O)(=O)C(C)(C)C)c5)c4n3)cc2Cl)CC1,1.13,0.008
CN1CCC(Nc2ncc3ccn(-c4cccc(NS(=O)(=O)C(C)(C)C)c4)c3n2)CC1,0.284,1000
CN1CCN2c3c(F)cc(Nc4ncc5ccn(-c6cccc(NS(=O)(=O)C(C)(C)C)c6)c5n4)cc3CC2C1 (centres unmarked),0.571,0.014
CN1CCN(c2ccc(Nc3ncc4ccn(-c5ccc(Cl)c(NS(=O)(=O)C(C)(C)C)c5)c4n3)cc2)CC1,0.481,0.165
CN1CCC(NC(=O)c2ccc(Nc3ncc4ccn(-c5ccc(F)c(NS(=O)(=O)C(C)(C)C)c5)c4n3)cc2F)CC1 [drawing 363],0.134,0.13
O=C(NC1CCNCC1)c1ccc(Nc2ncc3ccn(-c4cccc(NS(=O)(=O)C5CC5)c4)c3n2)cc1,2.1,0.04
CN1CCC(NC(=O)c2ccc(Nc3ncc4ccn(-c5ccc(F)c(NS(=O)(=O)C(C)(C)C)c5)c4n3)cc2F)CC1 [drawing 335],0.094,360
CC(C)(C)S(=O)(=O)Nc1cccc(-n2ccc3cnc(Nc4ccc(N5CCNCC5)c(F)c4)nc32)c1 [drawing 432],0.174,0.008
CC(C)(C)S(=O)(=O)Nc1cc(-n2ccc3cnc(Nc4ccc(N5CCC(C(=O)O)CC5)c(F)c4)nc32)ccc1F,1.1,0.12
CC1CNCCC1Nc1nc(Nc2ccc3c(c2)N(S(=O)(=O)C(C)(C)C)CC3)c2ccsc2n1 (centres unmarked),5.8,10
CC(C)S(=O)(=O)Nc1cccc(-n2ccc3cnc(Nc4ccc(N5CCN(C)CC5)cc4)nc32)c1,1.02,0.0082
CN1CCCc2cc(Nc3ncc4ccn(-c5cccc(NS(=O)(=O)C(C)(C)C)c5)c4n3)ccc21,0.8,0.07
Cc1cnc(Nc2ccc(N3CCN(C)CC3)cc2)nc1Nc1cccc(NS(=O)(=O)C(C)(C)C)c1 [drawing 276],0.164,0.008
CN(C)CC1CCN(c2ccc(Nc3ncc4ccn(-c5ccc(F)c(NS(=O)(=O)C(C)(C)C)c5)c4n3)cc2F)CC1,0.143,0.083
CC(C)(C)S(=O)(=O)Nc1cccc(Nc2nc(NC3CCN(C(N)=O)CC3)nc3sccc23)c1,3.03,10
Cc1cnc(Nc2ccc(N3CCN(C)CC3)cc2)nc1Nc1cccc(NS(=O)(=O)C(C)(C)C)c1 [drawing 339],0.235,0.043
Cc1cnc(Nc2ccc(N3CCN(C)CC3)cc2)nc1Nc1cccc(NS(=O)(=O)C(C)(C)C)c1 [drawing 396],0.155,0.007
CN(C)C1CCN(c2ccc(Nc3ncc4ccn(-c5ccc(F)c(NS(=O)(=O)C(C)(C)C)c5)c4n3)cc2F)CC1 [drawing 373],0.153,0.027
COc1cc(Nc2ncc3ccn(-c4cccc(NS(=O)(=O)C(C)(C)C)c4)c3n2)ccc1N1CCC(N(C)C)CC1,0.421,0.002
COc1cc(Nc2ncc3ccn(-c4ccc(F)c(NS(=O)(=O)C(C)(C)C)c4)c3n2)ccc1N1CCN(C)CC1,0.272,0.09
